Results: patent US8722052B2, “Vaccinia virus protein A46 peptide and use thereof” (priority 2008, dated 2014)

System: JNK
Assay: LPS-induced phospho-JNK in RAW264.7 cells, immunoblot
Format: cell-based, murine
Details: peptide 5 μM, 10 ng/ml LPS 5-60 min
Protocol: FIGS. 27A, B and C are immunoblots showing the effect of A464 on LPS-induced appearance of phospho-JNK in murine RAW264.7 cells. Cells were set up as for FIG. 25 above and 5 μM A467 (SEQ ID NO. 23) or A464 (SEQ ID NO. 20) were added to the wells 1 hour before stimulation. Cells were stimulated with 10 ng/ml LPS for a period of 5, 15, 30 or 60 min, then harvested and lysed. Proteins were resolved by SDS-PAGE, and transferred membranes immunoblotted for phospho-JNK (A), total JNK (B) or β-actin (C). The blots shown are representative of two experiments;
RAW264.7 cells were seeded at a density of 1×10^5 cells/ml in 6 well plates. […] The protein concentration was determined by monitoring the change in the solution absorbance at 280 nm using a spectrophotometer compared to protein standards. […] Thereafter, the membranes were washed, incubated in appropriate secondary antibody and then developed using standard enhanced chemi-luminescence (ECL) reagents.
Next, the effect of A464 (SEQ ID No. 20) on MAPK activation was measured by assaying the phosphorylation of p38 and JNK by Western blot. […] As before the protein concentration in the samples was determined by Bradford assay and the accuracy of the loading was confirmed by re-probing the blot for β-actin. […]

Sequence: KYSFKLILAEYRRRRRRRRR [Peptide A464]
- effect on LPS-induced phosphorylation of JNK: completely inhibited phosphorylation of JNK at all times of the LPS stimulation
